{"source": "patent US20100297256A1", "about": "“METHODS AND COMPOSITIONS FOR INHIBITING INTEGRINS USING TELLURIUM-CONTAINING COMPOUNDS” (priority 2007, published 2010)", "key": {"[1]": {"test_system": "leukemic cells from AML patients", "experiment": "Sensitization of leukemic cells from AML patients to chemotherapy", "assay_type": "cell-based, human", "procedure": "(§1) 2×10^4 per 200 μl cells were seeded in 96-microwell flat bottom plates. After 24 hours, the tested compound(s) (e.g., AS101, ARA-C, DTNB, anti-VLA-4 antibody) was added, and the cells were incubated overnight with the tested compound(s). The XTT solution was then added and the cells were incubated for 4 hours at 37° C. Cell viability was than evaluated by measuring absorbance at 450 nm using a Microplate Spectrophotometer (Spectra MAX Plus, Molecular Devices).\nBone marrow samples from patients diagnosed, with AML, but not yet treated, were obtained and grown in vitro. The leukemic cells obtained therefrom were tested for levels of VLA-4 and VLA-5 via fluorescence based cytometry, using FITC (fluorescein isothiocyanate)-conjugated anti-VLA-4 and anti-VLA-5 antibodies, using standard procedures. The cells were grown on both fibronectin and BSA, and the effect of AS101 on chemotherapy resistance was measured."}, "[2]": {"target": "T1, αVβ3 integrin (Homo sapiens, UniProt P05106+P06756)", "T1 construct": "purchased Chemicon", "T1 sequence (P06756 31-889 limits assumed)": "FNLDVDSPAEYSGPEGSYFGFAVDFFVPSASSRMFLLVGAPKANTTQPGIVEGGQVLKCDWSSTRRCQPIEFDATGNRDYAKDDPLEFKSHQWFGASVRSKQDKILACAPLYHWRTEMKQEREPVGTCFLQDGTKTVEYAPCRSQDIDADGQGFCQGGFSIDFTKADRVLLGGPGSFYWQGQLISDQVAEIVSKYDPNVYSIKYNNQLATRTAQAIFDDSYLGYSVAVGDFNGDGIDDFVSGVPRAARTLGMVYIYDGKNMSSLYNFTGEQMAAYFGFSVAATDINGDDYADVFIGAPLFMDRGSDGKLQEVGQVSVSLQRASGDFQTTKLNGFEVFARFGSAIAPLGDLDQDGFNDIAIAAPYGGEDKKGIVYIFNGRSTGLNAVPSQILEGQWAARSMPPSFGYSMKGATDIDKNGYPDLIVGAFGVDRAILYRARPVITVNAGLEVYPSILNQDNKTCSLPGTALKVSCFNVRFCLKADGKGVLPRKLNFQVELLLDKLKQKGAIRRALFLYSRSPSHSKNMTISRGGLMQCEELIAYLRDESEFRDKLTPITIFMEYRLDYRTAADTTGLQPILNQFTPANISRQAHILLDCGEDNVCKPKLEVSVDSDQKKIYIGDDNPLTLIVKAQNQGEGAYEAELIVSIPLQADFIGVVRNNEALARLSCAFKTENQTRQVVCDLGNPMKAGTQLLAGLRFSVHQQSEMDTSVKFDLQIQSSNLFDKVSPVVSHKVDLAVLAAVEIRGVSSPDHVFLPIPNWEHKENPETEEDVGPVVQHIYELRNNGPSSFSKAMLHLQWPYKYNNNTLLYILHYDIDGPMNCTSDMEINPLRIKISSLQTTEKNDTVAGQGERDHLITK", "T1 sequence (P06756 891-1048 limits assumed)": "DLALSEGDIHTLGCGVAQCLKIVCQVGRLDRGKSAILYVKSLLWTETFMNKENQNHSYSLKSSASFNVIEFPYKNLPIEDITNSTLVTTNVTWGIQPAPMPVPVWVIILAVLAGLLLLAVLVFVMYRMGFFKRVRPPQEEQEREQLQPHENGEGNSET", "T1 sequence (P05106 27-788)": "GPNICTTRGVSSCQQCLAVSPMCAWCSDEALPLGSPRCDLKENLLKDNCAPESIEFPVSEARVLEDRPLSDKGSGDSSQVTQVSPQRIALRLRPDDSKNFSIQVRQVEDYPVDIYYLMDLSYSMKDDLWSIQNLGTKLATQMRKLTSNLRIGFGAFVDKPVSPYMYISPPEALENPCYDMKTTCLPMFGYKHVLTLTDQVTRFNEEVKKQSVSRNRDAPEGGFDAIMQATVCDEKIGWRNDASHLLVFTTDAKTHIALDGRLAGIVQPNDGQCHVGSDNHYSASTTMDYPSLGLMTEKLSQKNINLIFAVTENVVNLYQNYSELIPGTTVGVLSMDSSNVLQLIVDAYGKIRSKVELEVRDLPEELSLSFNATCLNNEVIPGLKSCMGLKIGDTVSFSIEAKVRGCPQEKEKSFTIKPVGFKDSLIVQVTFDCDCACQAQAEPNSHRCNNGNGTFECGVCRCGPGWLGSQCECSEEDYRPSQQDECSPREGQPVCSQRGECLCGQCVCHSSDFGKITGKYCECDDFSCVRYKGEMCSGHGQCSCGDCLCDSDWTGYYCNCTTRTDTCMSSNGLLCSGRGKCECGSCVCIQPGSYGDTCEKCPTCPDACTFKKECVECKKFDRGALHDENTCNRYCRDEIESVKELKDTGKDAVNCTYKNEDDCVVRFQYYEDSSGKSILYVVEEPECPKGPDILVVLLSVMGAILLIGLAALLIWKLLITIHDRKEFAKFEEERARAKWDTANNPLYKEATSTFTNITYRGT", "experiment": "Integrin-WNV attachment assay", "assay_type": "binding", "settings": "purified integrin 75 ng/well", "procedure": "A solid-phase binding assay was performed according to a method previously described by Sharma et al [Virology, 239:150, 1997]. WNV was diluted in 50 mM carbonate-bicarbonate buffer, pH 9.6, to a concentration of 10^6 PFU/ml, and 100 μl aliquots were added to the wells of 96-well Nunc-Maxisorp ELISA plates. The plates were incubated overnight at 4° C., washed three times with washing buffer (20 mM Tris-HCL [pH 7.5], 150 mM NaCl), and then blocked for 2 hours at room temperature with […] of blocking buffer containing 20 mM Tris-HCL, pH 7.5, 150 mM NaCl, 5% Bovine serum albumin (BSA). The wells were then washed again, and purified αVβ3 integrin (75 ng/well), diluted in binding buffer (20 mM Tris-HCL, pH 7.5, 150 mM NaCl, 5% BSA, 2 mM CaCl2, 1 mM MgCl2) containing various concentrations of AS101, was added to the wells. After 2 hours of incubation at 37° C., the wells were washed three times with washing buffer. Bound integrin was detected with mouse monoclonal anti-human αVβ3 integrin antibody (Millipore [Chemicon]) diluted 1:1000 in 100 μl binding buffer. Incubation continued for 1 hour at 37 C, and then the wells were washed again. […] Colour development was stopped by the addition of 1 N H2SO4, and plates were read in a spectrophotometer at 492 nm."}, "[3]": {"test_system": "HL-60 cells", "experiment": "AML chemotherapy resistance assay (XTT cell viability), HL-60", "assay_type": "cell-based, human", "procedure": "(§2) Cell viability was determined using a cell proliferation kit (Roche), which colors viable cells using the tetrazolium salt XTT.\nas §1"}, "[4]": {"target": "T2, VLA-4 (Homo sapiens, UniProt P13612)", "T2 construct": "free thiols are present on the integrin VLA-4 in leukemic cells; endogenous in cells; host or cells: U937 leukemic cells", "T2 sequence (P13612 34-1032)": "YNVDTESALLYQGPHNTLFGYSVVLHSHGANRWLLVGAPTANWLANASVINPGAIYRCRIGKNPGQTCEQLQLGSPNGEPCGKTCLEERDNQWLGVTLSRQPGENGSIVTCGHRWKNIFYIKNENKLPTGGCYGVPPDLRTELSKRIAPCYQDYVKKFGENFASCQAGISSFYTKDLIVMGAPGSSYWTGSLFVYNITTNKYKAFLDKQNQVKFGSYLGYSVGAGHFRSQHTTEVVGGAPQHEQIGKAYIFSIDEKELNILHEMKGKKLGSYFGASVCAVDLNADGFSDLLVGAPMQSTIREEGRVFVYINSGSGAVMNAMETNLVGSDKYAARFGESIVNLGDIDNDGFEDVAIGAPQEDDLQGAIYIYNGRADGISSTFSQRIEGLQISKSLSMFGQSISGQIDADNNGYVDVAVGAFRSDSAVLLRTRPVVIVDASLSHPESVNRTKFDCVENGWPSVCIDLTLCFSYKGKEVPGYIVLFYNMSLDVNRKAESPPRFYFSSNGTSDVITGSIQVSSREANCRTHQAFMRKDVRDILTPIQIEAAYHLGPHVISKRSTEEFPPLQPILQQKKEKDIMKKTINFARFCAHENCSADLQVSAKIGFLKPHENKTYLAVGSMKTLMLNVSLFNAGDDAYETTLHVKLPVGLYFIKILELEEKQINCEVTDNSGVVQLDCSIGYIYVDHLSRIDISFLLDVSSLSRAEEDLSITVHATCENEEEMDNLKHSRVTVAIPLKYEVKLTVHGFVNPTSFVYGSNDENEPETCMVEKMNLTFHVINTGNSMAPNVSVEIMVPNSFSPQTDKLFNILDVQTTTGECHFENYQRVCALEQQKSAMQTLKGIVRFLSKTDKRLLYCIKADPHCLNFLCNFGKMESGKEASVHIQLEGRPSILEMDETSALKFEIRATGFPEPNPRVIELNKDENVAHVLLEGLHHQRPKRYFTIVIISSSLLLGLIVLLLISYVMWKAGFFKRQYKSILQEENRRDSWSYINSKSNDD", "T2 sequence (P05556 21-798 partner)": "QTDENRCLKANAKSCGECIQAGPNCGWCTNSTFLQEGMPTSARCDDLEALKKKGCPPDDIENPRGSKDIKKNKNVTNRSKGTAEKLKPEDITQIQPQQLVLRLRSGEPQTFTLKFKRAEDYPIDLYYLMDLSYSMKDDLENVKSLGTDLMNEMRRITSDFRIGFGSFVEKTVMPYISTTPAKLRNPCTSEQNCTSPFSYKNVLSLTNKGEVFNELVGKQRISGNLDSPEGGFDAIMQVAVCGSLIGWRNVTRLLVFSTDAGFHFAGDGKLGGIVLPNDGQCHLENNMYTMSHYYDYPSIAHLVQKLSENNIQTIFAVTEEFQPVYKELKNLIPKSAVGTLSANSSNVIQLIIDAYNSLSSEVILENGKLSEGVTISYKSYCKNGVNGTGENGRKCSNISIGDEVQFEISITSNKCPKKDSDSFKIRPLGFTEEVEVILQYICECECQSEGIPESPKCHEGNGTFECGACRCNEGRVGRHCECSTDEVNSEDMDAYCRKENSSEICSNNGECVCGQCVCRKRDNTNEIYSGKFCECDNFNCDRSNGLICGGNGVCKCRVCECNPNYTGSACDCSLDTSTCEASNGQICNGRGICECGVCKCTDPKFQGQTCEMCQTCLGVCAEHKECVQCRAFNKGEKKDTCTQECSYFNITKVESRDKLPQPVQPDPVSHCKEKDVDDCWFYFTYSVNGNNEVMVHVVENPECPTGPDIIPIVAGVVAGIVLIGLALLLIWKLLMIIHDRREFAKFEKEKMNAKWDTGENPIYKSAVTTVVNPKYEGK", "experiment": "Western blot analysis of VLA-4 thiols", "assay_type": "cell-based", "settings": "U937 cultured on fibronectin", "procedure": "In order to confirm that free thiols are present on the integrin VLA-4 in leukemic cells, and that these are blocked by AS101, U937 leukemic cells cultured on fibronectin or BSA were treated with BMCC (1-biotinamido-4-(4′-[maleimidoethylcyclohexane]-carboxamido)butane), a thiol blocker linked to biotin. Some cultures were treated with AS101. The α and β chains of the VLA-4 (α4β1 integrin) were then immunoprecipitated from the treated cells using either anti-α4 or anti-β1 antibodies and blotted with anti-biotin antibody. The presence of free thiols was indicated by bands observed by anti-biotin blotting. The presence of α4 and β1 chains was determined by blotting with anti-α4 and anti-β1 antibodies."}, "[5]": {"test_system": "U937 cells", "experiment": "AML chemotherapy resistance assay (XTT cell viability), U937", "assay_type": "cell-based, human", "procedure": "as §2, §1\nThe role of VLA protein in fibronectin-induced resistance to chemotherapy was investigated by performing a chemotherapy resistance assay, as described hereinabove, with anti-VLA-4 and anti-VLA-5 antibodies. U937 cells were grown in fibronectin- and BSA-coated plates. Antibodies were added at a concentration of 1 μg/ml."}, "[6]": {"settings": "rats, intravenous and intramuscular administration; cited from earlier work"}, "[7]": {"test_system": "West Nile Virus (WNV)", "experiment": "West Nile Virus (WNV) cytopathic effect assay", "assay_type": "cell-based", "settings": "Vero cells", "procedure": "Attached cells were washed with PBS without Ca^+2/Mg^+2. 100 μl of 0.2% crystal violet in 20% methanol was thereafter added and the cells were incubated for 10 minutes at room temperature. At the end of incubation time, cells were washed twice with double-distilled water and 100 μl of 10% SDS was added. Dye bound to the cell is released by SDS and the absorption by the dye is measured by colorimetry at 570 nm. The amount of stained cells is then considered to be proportional to the measured absorption by the dye\nVero cells were seeded at the density of 2×10^4 cells/well in 96-well plates, 20 hours before infection. The cells were treated with PBS or with various concentrations of AS101 before (1 hour or 5-10 minutes), or after (1 hour or 24 hours) virus inoculation. WNV at MOI (multiplicity of infection) of 0.005 PFU (plaque forming units) per cell was added to the cells and allowed undergo absorption for 1 hour at 37° C. The medium was removed and the cells were washed twice with PBS and overlaid with fresh medium. Cells were then incubated at 37° C. with 5% CO2 for 3-5 days. The development of a cytopathic effect was monitored by light microscopy."}, "[8]": {"test_system": "U937 cells", "experiment": "Fluorescence-based flow cytometry analysis of cell death", "parameters": "species or system human", "source_text": "Fluorescence-based flow cytometry was used to measure the effect of tellurium-containing compounds on chemotherapy-induced cell death. Accumulation of cells in the sub-G1 fraction, increased proportion of annexin V-positive and propidium iodide-positive cells and increased caspase activity were each used as indicators of increased cell death, using standard procedures."}, "[9]": {"settings": "HL-60, fibronectin-coated plates, 0.5 or 1 μg/ml AS101"}, "[10]": {"settings": "U937 on BSA, AS101 combined with ARA-C"}, "[11]": {"settings": "U937 on fibronectin, AS101 combined with ARA-C"}, "[12]": {"settings": "U937 on fibronectin, agent alone"}}, "data": [{"compound": "Cl[TeH]1(Cl)(Cl)OCCO1", "note": "[AS101, ammonium trichloro(dioxyethylene-O,O′)tellurate]", "values": [{"measurement": "inhibition of resistance to ARA-C", "setting": "[1]; 8 AML patients with high VLA-4 levels, on fibronectin, 0.5 or 1 μg/ml AS101", "result": "inhibited the resistance to ARA-C of high-VLA-4 cells on fibronectin in a dose-dependent manner"}, {"measurement": "inhibition of resistance to ARA-C", "setting": "[1]; Patient B, high VLA-4, on fibronectin", "result": "inhibited the resistance to ARA-C of high-VLA-4 cells on fibronectin in a dose-dependent manner"}, {"measurement": "sensitization to ARA-C, combination of AS101 and DTNB vs either alone", "setting": "[1]; high-VLA-4 cells on fibronectin", "result": "did not sensitize high-VLA-4 cells grown on fibronectin to a greater degree than did either AS101 or DTNB alone"}, {"measurement": "effect on viability of cells exposed to ARA-C, alone or in combination", "setting": "[1]; low VLA-4 leukemic cells, fibronectin-coated plates", "result": "no effect either alone or in combination"}, {"measurement": "attachment of αVβ3 integrin to immobilized WNV", "setting": "[2]", "result": "directly inhibited the attachment of αVβ3 integrin to WNV in a dose dependent manner"}, {"measurement": "sensitization to daunorubicin-induced cell death", "setting": "[3]; HL-60, BSA-coated or VCAM-1-coated plates", "result": "no visible effect"}, {"measurement": "sensitization to ARA-C-induced cell death", "setting": "[3]; [9]", "result": "sensitized HL-60 cells to ARA-C-induced cell death on fibronectin-coated plates"}, {"measurement": "sensitization to daunorubicin-induced cell death", "setting": "[3]; [9]", "result": "sensitized HL-60 cells to daunorubicin-induced cell death on fibronectin-coated plates in a dose-dependent manner"}, {"measurement": "free thiols on the α chain of VLA-4 (BMCC labelling)", "setting": "[4]", "result": "eliminated these free thiols"}, {"measurement": "effect on viability of cells exposed to ARA-C", "setting": "[5]; U937, BSA-coated plates", "result": "neither AS101 nor anti-VLA-4 antibodies had an effect"}, {"measurement": "additional sensitization to ARA-C in cells sensitized by anti-VLA-4 antibodies", "setting": "[5]; U937, fibronectin-coated plates", "result": "no additional effect"}, {"measurement": "sensitization to ARA-C-induced cell death", "setting": "[5]; U937, fibronectin-coated plates, 0.5 or 1 μg/ml AS101", "result": "sensitized U937 cells to ARA-C-induced cell death on fibronectin-coated plates"}, {"measurement": "effect on viability of cells exposed to ARA-C, alone or in combination", "setting": "[5]; U937 on BSA", "result": "no effect either alone or in combination"}, {"measurement": "sensitization to ARA-C, combination of AS101 and DTNB vs either alone", "setting": "[5]; U937 on fibronectin", "result": "did not sensitize U937 cells grown on fibronectin to a greater degree than did either AS101 or DTNB alone"}, {"measurement": "LD50 relative to the immunologically effective dose", "setting": "[6]", "result": "500-1000 folds"}, {"measurement": "WNV cytopathic effect", "setting": "[7]; 2.5 μg/ml added 5-10 minutes before inoculation", "result": "no cytopathic effect is observed"}, {"measurement": "viability of WNV-infected cells (crystal violet)", "setting": "[7]; 72 hours after infection", "result": "dose-dependent protective effect"}, {"measurement": "WNV cytopathic effect", "setting": "[7]; added 1 hour or 24 hours after inoculation, data not shown", "result": "did not exhibit such an inhibitory effect"}, {"measurement": "caspase-3 activity, ARA-C and AS101 in combination vs ARA-C alone", "setting": "[8]; U937 on BSA", "result": "the same degrees of caspase-3 activity"}, {"measurement": "percentage of annexin V-positive and propidium iodide-positive cells", "setting": "[8]; [10]", "result": "only slightly above the percentage obtained with ARA-C alone"}, {"measurement": "percentage of cells in the sub-G1 fraction", "setting": "[8]; [10]", "result": "did not provide significantly different results than ARA-C alone"}, {"measurement": "percentage of annexin V-positive and propidium iodide-positive cells", "setting": "[8]; [11]", "result": "increased the percentage of annexin V-positive and propidium iodide-positive cells considerably"}, {"measurement": "percentage of cells in the sub-G1 fraction", "setting": "[8]; [11]", "result": "over 80%"}, {"measurement": "percentage of cells with high caspase-3 activity", "setting": "[8]; [11]", "result": "high percentage of cells with increased caspase-3 activity"}, {"measurement": "percentage of annexin V-positive and propidium iodide-positive cells", "setting": "[8]; [12]", "result": "no effect alone"}, {"measurement": "percentage of cells in the sub-G1 fraction", "setting": "[8]; [12]", "result": "no effect alone"}, {"measurement": "percentage of cells with high caspase-3 activity", "setting": "[8]; [12]", "result": "little or no effect"}]}]}
